From patent US20130287721A1, “METHOD FOR COUNTERACTING AMMONIA MALODOR” (Firmenich SA, priority 2010, published 2013)

System: ammonia lateralization threshold
Assay: Panel evaluation of the lateralization threshold (LT) of ammonia alone and in combination with a PRM
Type: in vivo, panellists
Design: LT of ammonia Panellist 1 Cond II / LT of ammonia Panellist 2 Cond II / LT of ammonia Panellist 3 Cond II: unit not given here
Details: Table 4; for LT of ammonia Panellist 1 Cond II / LT of ammonia Panellist 2 Cond II / LT of ammonia Panellist 3 Cond II: ammonia stimulus combined with PRM stimulus; for LT of ammonia Panellist 1 %Δ / LT of ammonia Panellist 2 %Δ / LT of ammonia Panellist 3 %Δ: change of ammonia LT, Cond II (with PRM) vs Cond I (ammonia alone)
Description: An ammonia stimulus test range was prepared. To ensure a stable level of ammonia in each stimulus, the ammonia headspace was stabilized by combining appropriate concentrations of NH4Cl, NaOH and H2O instead of simply adding ammonia directly to a solvent. Different concentrations of ammonia were used to create a stimulus test range by utilizing the appropriate amount of each compound (see Table 1).
A stimulus was also prepared for each PRM which was intended to be combined with ammonia stimuli. As the PRMs differed in their potency and to ensure that each PRM stimulus had approximately the same potency, an abbreviated dose response curve was constructed for each PRM by having four panellists evaluate the intensity of five concentration levels of the PRM dissolved in propylene glycol in duplicate. Assessments were made relative to the reference of 170 ppm allyl heptanoate in propylene glycol, which intensity was set to 0. Based upon the average scores, a rough intensity match was made for each PRM utilizing one of the following criteria. If one of the tested concentration levels averaged at or near zero, this concentration level was selected. If the rating created any sort of reasonable curve, the equation of the curve was determined and solved for 0 to arrive at the PRM assessment level. If multiple concentration levels were equally distant form the match level, then the standard deviation across individuals was considered, as were the individual responses. In general, the PRM level was selected to be on average close to 0 with low variability, with two panellists saying the level was a bit too high and the other two panellists saying the level was a bit too low. The PRMs for which a stimulus was prepared are listed in Table 2 below, together with the concentration of the PRM in the stimulus.
Volunteers were screened for their ability to lateralize ammonia stimuli. For the screening, the experimenter measured the participant's lateralization threshold for ammonia using a two-alternative forced choice modified staircase procedure employing a four-in, two-down, one-up rule with a five reversal criterion, as described below, On each trial volunteers were presented with a pair of glass bottles with clean, custom-made nose pieces. One bottle contained ammonia at a particular level selected from Table 1 and the other bottle contained water only. Each bottle was applied to one nostril using the nose piece. The volunteers were asked to identify which bottle in each pair contained ammonia.
If the ammonia stimulus was correctly identified in four consecutive trials, the concentration was decreased by one level of Table 1 on the next trial. If an incorrect answer was provided, the concentration was increased by one level of Table 1. Location (left or right nostril) of the stimulus was randomized over presentations. Testing continued until one of the following occurred: • 1) Five reversals (correct decision followed by an incorrect decision or vice versa) were achieved; • 2) The volunteer gave a correct response twice in a row at the lowest level of Table 1; or • 3) The volunteer gave an incorrect response at the highest level of Table 1.
In the first circumstance, threshold values were then calculated by averaging the last four reversals. In the second circumstance, the LT was the lowest level. In the third circumstance, the LT could not be calculated. Volunteers were considered qualified to participate in the panel evaluation if their LT could be calculated (Circumstance 1).
The LT of ammonia, both alone and in combination with diverse PRM, was determined. A repeated-measures design was used, such that the LT with and without the addition of a PRM were both measured at the same time in one person by utilizing interwoven stimuli presentations. The LT for each PRM was measured by two to three panellists, the third panellists being included if the results of the first to panellists disagreed. […]

Mixture of 3-(4-ethylphenyl)-2,2-dimethylpropanal and 3(2-ethylphenyl)-2,2-dimethylpropanal [Floralozone]
LT of ammonia Panellist 1 Cond II: 2.0
LT of ammonia Panellist 2 Cond II: 6.3
LT of ammonia Panellist 3 Cond II: 3.5
LT of ammonia Panellist 1 %Δ: 895%
LT of ammonia Panellist 2 %Δ: 214%
LT of ammonia Panellist 3 %Δ: 77%

Mixture of (E)-4-(2,2,C-3,T-6-tetramethyl-R-1-cyclohexyl)-3-buten-2-one and (E)-4-(2,2,T-3,T-6-tetramethyl-R-1-cyclohexyl)-3-buten-2-one [Myrrhone ®]
LT of ammonia Panellist 1 Cond II: 11.1
LT of ammonia Panellist 2 Cond II: 3.5
LT of ammonia Panellist 3 Cond II: 3.5
LT of ammonia Panellist 1 %Δ: 77%
LT of ammonia Panellist 2 %Δ: 212%
LT of ammonia Panellist 3 %Δ: 77%
